Consider two substances from publication PMC5753150 (Beilstein Journal of Organic Chemistry, 2017).

Data set [1] relates to elastase (from porcine pancreas, EC 3.4.21.36). The experiment in a line: elastase in 100 mM Tris/HCl buffer, pH 8.4. The note with it: 37 °C, up to 24 h.
Data set [2] has as its system elastase (EC 3.4.21.36). Description: elastase in 100 mM Tris/HCl buffer, pH 8.4. The note with it: porcine pancreas, 37 °C, up to 24 h.
The subject of data set [3] is pepsin (EC 3.4.23.1). Description: pepsin in 10 mM acetate buffer, pH 4.0. Conditions: porcine stomach mucosa, 30 °C, up to 24 h.
Data set [4] has as its system proteinase K (EC 3.4.21.64). Description: proteinase K in 50 mM Tris/HCl buffer, containing 10 mM CaCl2 pH 7.5. Conditions: tritirachium album, 37 °C, up to 24 h.
Data set [5] has as its system α-chymotrypsin (EC 3.4.21.1). The experiment in a line: α-chymotrypsin in 10 mM phosphate buffer, pH 7.4. Conditions: bovine pancreas, 30 °C, up to 24 h.
Data set [6] relates to dipeptidyl peptidase. Conditions: wild-type peptide; cited from earlier work. An excerpt: Several laboratories have focused on introducing highly fluorinated analogues of hydrophobic amino acids and have studied the effects on stability of the resulting proteins towards thermal and chemical denaturation. These studies prompted further investigation into the extent to which fluorinated amino acids stabilize peptides and proteins against proteolytic degradation in particular. Meng and Kumar reported that the incorporation of 5,5,5,5’,5’,5’-hexafluoroleucine (HfLeu) into the antimicrobial peptides magainin 2 amide and buforin enhanced their resistance towards proteolyt ...

With Abz-KAAFALeuAAK, the not cleaved entry in data set [1] is “no fragments with Phe in P1 observed”. Also, the cleaved bond result was “A-A and A-Leu and A-K” in data set [2]; “F-A” in data set [3]; “A-F and Leu-A” in data set [4]; “F-A, major” in data set [5].
In the case of glucagon-like-peptide-1 [GLP-1], in data set [6], the “Time of rapid digestion by the serine protease dipeptidyl peptidase” value is recorded as “≈ 2 min”.
